{"source": "patent US20190231791A1", "about": "“Combination Therapy” (Eli Lilly and Company, priority 2016, published 2019)", "key": {"human BACE2 (1-460):Fc": {"biological_target": "T1, human BACE2 (1-460):Fc (Homo sapiens, UniProt Q9Y5Z0)", "T1 construct": "10 μL of 200 picomolar human BACE2 (1-460):Fc in the same reaction buffer; made in house; host or cells: HEK293 (transient transfection, purified from conditioned media by Protein A)", "T1 sequence (Q9Y5Z0 21-460)": "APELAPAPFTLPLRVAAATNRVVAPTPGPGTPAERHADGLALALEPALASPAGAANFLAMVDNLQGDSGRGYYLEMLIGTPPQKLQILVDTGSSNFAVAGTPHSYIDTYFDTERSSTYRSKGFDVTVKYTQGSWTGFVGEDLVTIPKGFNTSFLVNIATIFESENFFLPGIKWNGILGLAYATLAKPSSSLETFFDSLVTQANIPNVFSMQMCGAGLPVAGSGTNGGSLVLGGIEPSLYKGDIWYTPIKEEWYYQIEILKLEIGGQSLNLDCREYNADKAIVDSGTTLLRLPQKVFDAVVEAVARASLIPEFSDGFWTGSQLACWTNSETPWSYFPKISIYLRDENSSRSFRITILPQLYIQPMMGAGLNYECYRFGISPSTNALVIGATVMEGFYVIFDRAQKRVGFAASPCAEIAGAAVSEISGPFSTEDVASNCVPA", "test": "BACE2 MBP-C125Swe assay", "format": "biochemical", "experimental": "(§1) To assess selectivity of BACE1 over BACE2, the test compound is evaluated in FRET and immunoassay detection base enzymatic assays using specific substrates for BACE1 and BACE2 as described below. For in vitro enzymatic and cellular assays, the test compound is prepared in DMSO to make up a 10 mM stock solution. The stock solution is serially diluted in DMSO to obtain a ten-point dilution curve with final compound concentrations ranging from 10 μM to 0.05 nM in a 96-well round-bottom plate before conducting the in vitro enzymatic and whole cell assays.\nHuman BACE1 (accession number: AF190725) and human BACE2 (accession number: AF 204944) are cloned from total brain cDNA by RT-PCR. The nucleotide sequences corresponding to amino acid sequences #1 to 460 are inserted into the cDNA encoding human IgG1 (Fc) polypeptide (Vassar et al., Science, 286, 735-742 (1999)). This fusion protein of BACE1(1-460) or BACE2(1-460) and human Fc, named huBACE1:Fc and huBACE2:Fc respectively, are constructed in the pJB02 vector. […]\nConditioned media of HEK293 cells transiently transfected with huBACE1:Fc or huBACE2:Fc cDNA are collected. […] The purity of final product is assessed by electrophoresis in 4-20% Tris-Glycine SDS-PAGE. […]\n10 point serial dilutions of test compounds are prepared in the appropriate range. […] The amount of product is measured by ELISA using MBP-C26swe standard. […]"}, "beta-secretase": {"biological_target": "T2, beta-secretase (Mus musculus, UniProt P56818)", "T2 construct": "from tissue; host or cells: brain (hippocampus, cortex) of young female PDAPP mice, in vivo dosing", "T2 sequence (P56818 46-501)": "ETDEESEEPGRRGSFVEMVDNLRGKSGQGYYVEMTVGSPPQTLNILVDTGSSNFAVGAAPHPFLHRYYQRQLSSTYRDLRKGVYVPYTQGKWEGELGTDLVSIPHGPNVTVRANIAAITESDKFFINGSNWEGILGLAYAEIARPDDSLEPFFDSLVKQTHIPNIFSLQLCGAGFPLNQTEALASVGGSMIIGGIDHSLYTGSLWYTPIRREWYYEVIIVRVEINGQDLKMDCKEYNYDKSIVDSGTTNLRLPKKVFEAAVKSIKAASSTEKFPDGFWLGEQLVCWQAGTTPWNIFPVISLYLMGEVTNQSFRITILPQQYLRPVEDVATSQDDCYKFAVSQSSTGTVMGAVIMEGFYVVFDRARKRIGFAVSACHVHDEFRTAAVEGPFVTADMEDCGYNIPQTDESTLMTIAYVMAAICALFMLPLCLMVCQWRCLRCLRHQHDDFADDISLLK", "test": "In vivo inhibition of beta-secretase, brain Abeta 1-x in PDAPP mice", "details": "young female PDAPP mice, three hours after dosing, vs vehicle, p<0.01", "text": "Several animal models, including mouse, guinea pig, dog, and monkey, may be used to screen for inhibition of beta-secretase activity in vivo following compound treatment. Animals used in this invention can be wild type, transgenic, or gene knockout animals. For example, the PDAPP mouse model, prepared as described in Games et al., Nature 373, 523-527 (1995), and other non-transgenic or gene knockout animals are useful to analyze in vivo inhibition of Abeta and sAPPbeta production in the presence of inhibitory compounds. Generally, 2 month old PDAPP mice, gene knockout mice or non-transgenic animals are administered compound formulated in vehicles, such as corn oil, beta-cyclodextran, phosphate buffers, PHARMASOLVE®, or other suitable vehicles via oral, subcutaneous, intra-venous, feeding, or other route of administration. 1 to 24 hours following the administration of compound, animals are sacrificed, and brains are removed for analysis of Abeta 1-x. “Abeta 1-x” as used herein refers to the sum of Abeta species that begin with residue 1 and end with a C-terminus greater than residue 28. This detects the majority of Abeta species and is often called “total Abeta”. Total Abeta peptides (Abeta 1-x) levels are measured by a sandwich ELISA, using monoclonal 266 as a capture antibody and biotinylated 3D6 as reporting antibody. (See May, et al., Journal of Neuroscience, 31, 16507-16516 (2011)).\nFor acute studies, compound or appropriate vehicle is administered and animals are sacrificed at about 3 hours after dosing. Brain tissue, is obtained from selected animals and analyzed for the presence of Abeta 1-x. After chronic dosing brain tissues of older APP transgenic animals may also be analyzed for the amount of beta-amyloid plaques following compound treatment.\nFor example, a 0.1, 0.3, and 1 mg/kg oral dose of Example 1, to young female PDAPP mice reduced Abeta 1-x peptide levels in brain hippocampus by 32%, 40%, and 55% (all values p<0.01), respectively."}, "BACE1": {"biological_target": "T3, BACE1 (Homo sapiens, UniProt P56817)", "T3 construct": "endogenous in cells; host or cells: SH-SY5Y (ATCC CRL2266) stably expressing human APP695Wt", "T3 sequence (P56817 46-501)": "as the sequence (P56818 46-501) above, with S6P, I162V, I165L, T180S, A182V, V340I, A393L, H443Q counted along it", "test": "SH-SY5YAPP695Wt whole cell assay (Abeta ELISA)", "format": "cell-based", "details": "24 hours incubation", "experimental": "as §1\nThe routine whole cell assay for the measurement of inhibition of BACE1 activity utilizes the human neuroblastoma cell line SH-SYSY (ATCC Accession No. CRL2266) stably expressing a human APP695Wt cDNA. Cells are routinely used up to passage number 6 and then discarded.\nSH-SY5YAPP695Wt cells are plated in 96 well tissue culture plates at 5.0×10^4 cells/well in 200 μL culture media (50% MEM/EBSS and Ham's F12, 1× each sodium pyruvate, non-essential amino acids and NaHCO3 containing 10% FBS). […]\nAt the end of the incubation, conditioned media are analyzed for evidence of beta-secretase activity by analysis of Abeta peptides 1-40 and 1-42 by specific sandwich ELISAs. […]"}}, "note": "Like-named read-outs stand apart in the source and are kept apart here.", "data": [{"molecule": "CC(F)(F)[C@H]1OC[C@]2(c3cc(NC(=O)c4ccc(C#N)cn4)ccc3F)N=C(N)SC[C@H]12", "note": "[Example 1, N-[3-[(4aS,5S,7aS)-2-Amino-5-(1,1-difluoroethyl)-4,4a,5,7-tetrahydrofuro[3,4-d][1,3]thiazin-7a-yl]-4-fluoro-phenyl]-5-cyano-pyridine-2-carboxamide]", "values": [{"measurement": "selectivity for BACE1 over BACE2 (BACE2 IC50 / BACE1 IC50)", "setting": "human BACE2 (1-460):Fc", "result": "approximately 35 fold"}, {"measurement": "reduction of Abeta 1-x levels in brain cortical tissue", "setting": "beta-secretase; 0.1 mg/kg oral", "result": 38, "unit": "%"}, {"measurement": "reduction of Abeta 1-x peptide levels in brain hippocampus", "setting": "beta-secretase; 0.1 mg/kg oral", "result": 32, "unit": "%"}, {"measurement": "reduction of Abeta 1-x levels in brain cortical tissue", "setting": "beta-secretase; 0.3 mg/kg oral", "result": 50, "unit": "%"}, {"measurement": "reduction of Abeta 1-x peptide levels in brain hippocampus", "setting": "beta-secretase; 0.3 mg/kg oral", "result": 40, "unit": "%"}, {"measurement": "reduction of Abeta 1-x levels in brain cortical tissue", "setting": "beta-secretase; 1 mg/kg oral", "result": 67, "unit": "%"}, {"measurement": "reduction of Abeta 1-x peptide levels in brain hippocampus", "setting": "beta-secretase; 1 mg/kg oral", "result": 55, "unit": "%"}, {"measurement": "IC50", "setting": "BACE1; ± 0.048, n=4, read-out: IC50 for SH-SY5YAPP695Wt A-beta (1-40) ELISA", "result": 0.157, "unit": "nM"}, {"measurement": "IC50", "setting": "BACE1; ± 0.050, n=4, read-out: IC50 for SH-SY5YAPP695Wt A-beta (1-42) ELISA", "result": 0.177, "unit": "nM"}]}]}
